These results are taken from patent US20110086834A1, “ALKYNYL ALCOHOLS AS KINASE INHIBITORS” (AMGEN INC., priority 2008, published 2011).

pKi: −log10 of the molar value.

T1 sequence (Q99558 400-655 limits assumed): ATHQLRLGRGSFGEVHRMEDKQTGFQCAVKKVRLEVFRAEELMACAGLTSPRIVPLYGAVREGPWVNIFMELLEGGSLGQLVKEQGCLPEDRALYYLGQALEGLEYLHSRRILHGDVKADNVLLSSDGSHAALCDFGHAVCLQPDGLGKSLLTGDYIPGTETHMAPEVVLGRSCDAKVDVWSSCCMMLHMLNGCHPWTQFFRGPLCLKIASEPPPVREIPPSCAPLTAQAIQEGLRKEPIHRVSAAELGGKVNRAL

One experiment concerns the target T1, NIK (Homo sapiens, UniProt Q99558).
T1 construct: Both assays utilize a truncated form of NIK containing only the catalytic domain; made in house; host or cells: baculovirus expression system (insect cells implied)
The experiment in a line: homogenous time resolved fluorescence (HTRF) assay for NIK Ki measurement. Format: biochemical.
Details: not given
Consider `COCCOc1cnc(N)nc1-c1c[nH]c2ccc(C#CC(C)(C)O)cc12` [Example 224, 4-(3-(2-Amino-5-(2-methoxyethoxy)-4-pyrimidinyl)-1H-indol-5-yl)-2-methyl-3-butyn-2-ol], for which the pKi (usually the Ki on a negative log10 scale, so that one unit is a factor of ten) was more than 6.00.

Still in this experiment, the particulars now being: truncated NIK (catalytic domain only), autophosphorylation; 10 nM enzyme; 20, 100, 200 or 500 μM ATP; room temperature, 2 hours; read-out: Ki activity in the homogenous time resolved fluorescence (HTRF) assay for NIK.
On to `COCCOCC1(C)CN(c2nc(N)nc3[nH]cnc23)c2cc(C#CC3(O)CCCC3)ccc21` (stereo not shown) [Example 73, 1-((1-(2-amino-9H-purin-6-yl)-3-((2-methoxyethoxy)methyl)-3-methyl-2,3-dihydro-1H-indol-6-yl)ethynyl)cyclopentanol], for which the negative logarithm of the Ki (pKi) is more than 6.00.
On the same count and under the same terms, the value for `COc1cc(C#CC2(O)CCCC2)cc2c1CCN2c1nc(N)ncc1F` [Example 18, 1-(2-(1-(2-amino-5-fluoropyrimidin-4-yl)-4-methoxyindolin-6-yl)ethynyl)cyclopentanol] was more than 6.00; that for `Nc1ncc2c(n1)-c1c([nH]c3ccc(C#CC4(O)CCCC4)cc13)CCC2` [Example 238, 1-((2-Amino-5,6,7,8-tetrahydropyrimido[4′,′:3,4]cyclohepta[1,2-b]indol-11-yl)ethynyl)cyclopentanol] was more than 6.00; that for `CNC(=O)C(C)(O)C#Cc1ccc2c(c1)N(c1nc(N)ncc1Cl)CC2(C)C` (stereo not shown) [Example 49, 4-(1-(2-amino-5-chloro-4-pyrimidinyl)-3,3-dimethyl-2,3-dihydro-1H-indol-6-yl)-2-hydroxy-N,2-dimethyl-3-butynamide] was more than 6.00.
For the compound `Cc1cc([C@@](C)(O)C#Cc2ccc3c(c2)N(c2nc(N)ncc2Cl)CC32CCOCC2)no1` (single isomer, unassigned) [Example 211a], the pKi is 4.52 to 6.00.
The same measure, in the same setting: for `CN1CC2(C1)CN(c1nc(N)ncc1Cl)c1cc(C#CC(C)(O)c3nccs3)ccc12` (racemic) [Example 181, (rac)-4-(1′-(2-amino-5-chloropyrimidin-4-yl)-1-methylspiro[azetidine-3,3′-indoline]-6′-yl)-2-(thiazol-2-yl)but-3-yn-2-ol] the value was more than 6.00; for `CNC(=O)c1cc(N2CCc3ccc(C#CC4(O)CCCC4)cc32)ccn1` [Example 255, 4-(6-((1-hydroxycyclopentyl)ethynyl)-2,3-dihydro-1H-indol-1-yl)-N-methyl-2-pyridinecarboxamide], 4.52 to 6.00.
On to `COCCOc1cnc(N)nc1-c1c[nH]c2ccc(C#CC(C)(O)C(F)(F)F)cc12` (stereo not shown) [Example 261, 4-(3-(2-Amino-5-((2-(methyloxy)ethyl)oxy)-4-pyrimidinyl)-1H-indol-5-yl)-1,1,1-trifluoro-2-methyl-3-butyn-2-ol], for which the pKi is 4.52 to 6.00.
Same read-out and setting: the value for `OC1(C#Cc2ccc3[nH]c4c(c3c2)-c2ncncc2CCC4)CCCC1` [Example 241, 1-(5,6,7,8-Tetrahydropyrimido[4′,′:3,4]cyclohepta[1,2-b]indol-11-ylethynyl)cyclopentanol] was more than 6.00.
As for `CC(O)(C#Cc1ccc2c(c1)N(c1nc(N)ncc1Cl)CC21CCOC1)c1nccs1` (racemic) [Example 198, 4-(1′-(2-Amino-5-chloro-4-pyrimidinyl)-1′,2′,4,5-tetrahydrospiro[furan-3,3′-indol]-6′-yl)-2-(1,3-thiazol-2-yl)-3-butyn-2-ol], the pKi was more than 6.00.
The same measure, in the same setting: for `CC(O)(C#Cc1ccc2c(c1)N(c1ccnc(N)n1)CC2)c1nccs1` (stereo not shown) [Example 276, 4-(1-(2-Amino-4-pyrimidinyl)-2,3-dihydro-1H-indol-6-yl)-2-(1,3-thiazol-2-yl)-3-butyn-2-ol] the value was more than 6.00.
Same read-out and setting: the value for `CC(O)(C#Cc1ccc(OC2CCOCC2)c(Nc2nc(N)ncc2Cl)c1)c1nccs1` (stereo not shown) [Example 152, 4-(3-(2-Amino-5-chloropyrimidin-4-ylamino)-4-(tetrahydro-2H-pyran-4-yloxy)phenyl)-2-(thiazol-2-yl)but-3-yn-2-ol] was more than 6.00; that for `Cc1cc([C@@](C)(O)C#Cc2ccc3c(c2)N(c2ncns2)CC3(C)C)no1` [Example 15, (S)-4-(3,3-dimethyl-1-(1,2,4-thiadiazol-5-yl)indolin-6-yl)-2-(5-methylisoxazol-3-yl)but-3-yn-2-ol] was more than 6.00.
As to `Cn1c2c(c3cc(C#CC4(O)CCCC4)ccc31)-c1nc(N)ncc1CN(Cc1ccccn1)C2=O` [Example 247, 2-Amino-1′-((1-hydroxycyclopentyl)ethynyl)-8-methyl-6-(2-pyridinylmethyl)-5,8-dihydropyrimido[4′,′:5,6]azepino[3,4-b]indol-7(6H)-one], the pKi is more than 6.00.
As for `CC(O)(C#Cc1ccc2c(c1)N(c1ccnc(N)n1)CC2)c1sccc1Cl` (stereo not shown) [Example 284, 4-(1-(2-Amino-4-pyrimidinyl)-2,3-dihydro-1H-indol-6-yl)-2-(3-chloro-2-thienyl)-3-butyn-2-ol], the pKi was more than 6.00.
On to `CC(O)(C#Cc1ccc2c(c1)N(c1nc(N)ncc1Cl)CC2(C)C)c1nccs1` (racemic) [Example 39, 4-(1-(2-amino-5-chloro-4-pyrimidinyl)-3,3-dimethyl-2,3-dihydro-1H-indol-6-yl)-2-(1,3-thiazol-2-yl)-3-Butyn-2-ol], for which the pKi is more than 6.00.
Same read-out and setting: the value for `Cc1cc([C@](C)(O)C#Cc2ccc3c(c2)N(c2ncns2)CC3(C)C)no1` [Example 14, (R)-4-(3,3-dimethyl-1-(1,2,4-thiadiazol-5-yl)indolin-6-yl)-2-(5-methylisoxazol-3-yl)but-3-yn-2-ol] was more than 6.00.
Still for that read-out and setting: the value for `C[C@@](O)(C#Cc1ccc(CN2CCOCC2)c(Nc2nc(N)ncc2Cl)c1)c1nccs1` [Example 163, (R)-4-(3-(2-Amino-5-chloropyrimidin-4-ylamino)-4-(morpholinomethyl)phenyl)-2-(thiazol-2-yl)but-3-yn-2-ol] was more than 6.00; that for `CC(O)(C#Cc1ccc2c(c1)N(c1nc(N)ncc1Cl)CC2)c1nc(CO)cs1` (stereo not shown) [Example 35, 4-(1-(2-amino-5-chloropyrimidin-4-yl)indolin-6-yl)-2-(4-(hydroxymethyl)thiazol-2-yl)but-3-yn-2-ol] was 4.52 to 6.00.
As for `CC1(C)CN(c2nc(N)ncc2Cl)c2cc(C#C[C@@](C)(O)c3nccs3)ccc21` (single isomer, unassigned) [Example 40], the pKi is more than 6.00.
Still for that read-out and setting: for `Cc1cc([C@](C)(O)C#Cc2ccc3c(c2)N(c2nc(N)ncc2Cl)CC32CCOCC2)on1` (single isomer, unassigned) [Example 31] the value was more than 6.00; for `Nc1ncc(Cl)c(N2CC3(CCOCC3)c3ccc(C#CC4(O)CCCC4)cc32)n1` [Example 205, 1-((1-(2-Amino-5-chloro-4-pyrimidinyl)-1,2,2′,3′,5′,6′-hexahydrospiro[indole-3,4′-pyran]-6-yl)ethynyl)cyclopentanol], more than 6.00; for `Nc1ncc2c(n1)-c1c([nH]c3ccc(C#CC4(O)CCCCC4)cc13)CCC2` [Example 239, 1-((2-Amino-5,6,7,8-tetrahydropyrimido[4′,′:3,4]cyclohepta[1,2-b]indol-11-yl)ethynyl)cyclohexanol], more than 6.00.
Turning to `CC(O)(C#Cc1ccc2c(c1)N(c1nc(N)ncc1Cl)CC2(C)C)c1ccn[nH]1` (stereo not shown) [Example 80, 4-(1-(2-amino-5-chloropyrimidin-4-yl)-3,3-dimethylindolin-6-yl)-2-(1H-pyrazol-5-yl)but-3-yn-2-ol and 4-(1-(2-amino-5-chloropyrimidin-4-yl)-3,3-dimethylindolin-6-yl)-2-(1H-pyrazol-3-yl)but-3-yn-2-ol], the pKi was more than 6.00.
As to `Cc1cc(C(C)(O)C#Cc2ccc(OC3CCOCC3)c(Nc3nc(N)ncc3Cl)c2)no1` (stereo not shown) [Example 148, 4-(3-(2-Amino-5-chloropyrimidin-4-ylamino)-4-(tetrahydro-2H-pyran-4-yloxy)phenyl)-2-(5-methylisoxazol-3-yl)but-3-yn-2-ol], the pKi was more than 6.00.
On to `Nc1ncc(Cl)c(-c2cnc3ccc(C#CC4(O)CCCC4)cn23)n1` [Example 298, 1-((3-(2-amino-5-chloro-4-pyrimidinyl)imidazo[1,2-a]pyridin-6-yl)ethynyl)-cyclopentanol], for which the pKi is more than 6.00.
The same measure, in the same setting: for `Cc1cc(C(C)(O)C#Cc2ccc3c(c2)N(c2nc(N)ncc2Cl)CC3)no1` (racemic) [Example 23, 4-(1-(2-amino-5-chloropyrimidin-4-yl)indolin-6-yl)-2-(5-methylisoxazol-3-yl)but-3-yn-2-ol] the value was more than 6.00; for `Cc1cnc(C(C)(O)C#Cc2ccc3ncc(-c4nc(N)ncc4Cl)n3c2)s1` (stereo not shown) [Example 300, 4-(3-(2-Amino-5-chloro-4-pyrimidinyl)imidazo[1,2-a]pyridin-6-yl)-2-(5-methyl-1,3-thiazol-2-yl)-3-butyn-2-ol], more than 6.00; for `CC(C)(C)NC(=O)c1ccc(-c2[nH]c3ccc(C#CC4(O)CCCC4)cc3c2-c2ccnc(N)n2)cc1` [Example 93, 4-(3-(2-aminopyrimidin-4-yl)-5-(2-(1-hydroxycyclopentyl)ethynyl)-1H-indol-2-yl)-N-tert-butylbenzamide], more than 6.00.
As for `COCCNC(=O)c1[nH]c2ccc(C#CC3(O)CCCC3)cc2c1-c1ccnc(N)n1` [Example 96, 3-(2-aminopyrimidin-4-yl)-5-(2-(1-hydroxycyclopentyl)ethynyl)-N-(2-methoxyethyl)-1H-indole-2-carboxamide], the pKi is more than 6.00.
The same measure, in the same setting: the value for `CC(O)(C#Cc1ccc2c(c1)N(c1nc(N)ncc1Cl)CC21CCCC1)c1nccs1` (stereo not shown) [Example 317, 4-(1′-(2-amino-5-chloro-4-pyrimidinyl)-1′,2′-dihydrospiro[cyclopentane-1,3′-indol]-6′-yl)-2-(1,3-thiazol-2-yl)-3-Butyn-2-ol] was more than 6.00.
Still for that read-out and setting: for `CN1CCC2(CC1)CN(c1nc(N)nc3[nH]cnc13)c1cc(C#CC3(O)CCCC3)ccc12` [Example 187, 1-((1-(2-amino-9H-purin-6-yl)-1′-methylspiro[indoline-3,4′-piperidine]-6-yl)ethynyl)cyclopentanol] the value was more than 6.00; for `CC(O)(C#Cc1ccc2c(c1)N(c1ccnc(N)n1)CC2)C1CCC1` (stereo not shown) [Example 21, 4-(1-(2-aminopyrimidin-4-yl)indolin-6-yl)-2-cyclobutylbut-3-yn-2-ol], more than 6.00.
